We go through 1 compound from article doi:10.1101/2021.12.13.472350v1, “An amphipathic and cationic antimicrobial peptide kills colistin resistant Gram-negative pathogens in vivo” (bioRxiv, 2021).

Data set [1] has as its system E. coli ATCC 25922. Put plainly: MIC in the presence of 50% human serum. In kind it is cell-based. The conditions noted are these: 50% heat inactivated human male AB serum and 50% MHB-II; crude measure of protein binding/interference; triplicate. As for the experimental part: The minimum inhibitory concentration (MIC) was determined as previously described ([68]), with minor modifications. Briefly, exponentially growing cultures in MHB-II (37°C) were diluted to an OD600 = 0.002, approximately 1×10^6 colony forming units (CFU) per ml. 100 µl of bacterial suspension was added to polypropylene microtiter plates containing 100 µl of Colistin or ChIP dilutions. Giving a final bacterial inoculum of ∼ 5×10^5 CFU/ml. Colistin sulfate salt (Sigma-Aldrich) and ChIP (Genscript >95% purity) was dissolved in H2O. ChIP MIC in serum was determined in the presence of 50% (heat inactivated) human serum (Sigma) and 50% MHB-II. All experiments were performed in triplicate.

The subject of data set [2] is E. coli ATCC 25922. Put plainly: In vivo sepsis/peritonitis mouse infection model. The following applies: NMRI mice infected IP.
Another data set deals with A. baumannii ATCC 19606. Put plainly: In vivo sepsis/peritonitis mouse infection model. The conditions noted are these: NMRI mice infected IP, 10 mg/kg IP at 1 and 3 h.
The subject of the next data set is E. coli and A. baumannii. Put plainly: Mouse peritonitis model, overall statement. The following applies: after two-dose treatment. It is filed as in vivo. As for the experimental part: Outbred female NMRI mice (NMRI; weight 26–30 g; Taconic, Denmark) were used throughout the study, as previously described ([69], [70]). […] Colistin is recommended at a dose of 5-10 mg/kg, according to the European Medicines Agency (EMA) ([71]). The animals were kept in Macrolon type III cages in groups of six and allowed free access to feed and water. Experiments were initiated after an acclimatization period of 7 days. Inoculation (bacterial infection) was performed by intraperitoneal (IP) injection of 0.5 ml bacterial suspension containing 2×10^7 CFU/ml and 5% (wt/vol) mucin (Sigma-Aldrich). During experiments, groups of eight mice per cage constituting one experimental unit were randomly assigned to treatment (5 mg/kg ChIP and 10 mg/kg ChIP or colistin 10 mg/kg and 24 mg/kg) or no treatment (vehicle). […] Quantification of bacterial load was performed by spot plating of blood and peritoneal fluid samples from the mice. […] Bacterial counts were recorded after overnight incubation at 37 °C in ambient air. […] The clinical condition of the mice was determined using a self-developed clinical score. For this score, mouse behavior and appearance were observed and evaluated for the parameters piloerection, attitude, locomotion, breathing and curiosity and awarded a score from 0 to 5 by a blinded observer. […] All mice were recorded for score 2.

Data set [3] deals with Klebsiella pneumoniae ATCC 13883. The following applies: ATCC 13883, reference strain; MHB-II, 37°C, ~5×10^5 CFU/ml, triplicate.
Data set [4] relates to Klebsiella pneumoniae ATCC 700603. The following applies: ATCC 700603, SHV-18, mucoid; MHB-II, 37°C, ~5×10^5 CFU/ml, triplicate.
In data set [5] the test system is Acinetobacter baumannii ATCC 19606. The conditions noted are these: ATCC 19606, reference strain; MHB-II, 37°C, ~5×10^5 CFU/ml, triplicate.
The subject of another data set is P. aeruginosa B3-CFI. The conditions noted are these: clinical isolate, colistin resistant, MHB-II, 37°C, ~5×10^5 CFU/ml, triplicate.
The next data set has as its system HeLa cells. The conditions noted are these: ChIP concentrations of 40 µg/ml and above, 24 hours, DMEM without serum, Trypan Blue, triplicate.
The conditions of data set [6]: cited from earlier work.
Where [7] appears, read: 5 mg/kg IP at 1 and 3 h post infection.
[8] abbreviates: 10 mg/kg IP at 1 and 3 h post infection.

≈ marks a conversion by molar mass, not a printed value.

Experimental for HeLa cells: HeLa cells were cultured in Dulbecco’s Modified Eagles Medium (DMEM) (Sigma) supplemented with 10% fetal calf serum (Sigma) and 2 mM glutamine at 37°C in a humid incubator with 5% CO2. Cell survival after 24 hours with various amounts of ChIP in DMEM without serum was determined by staining with Trypan Blue Stain (Gibco/Life Technologies). Experiments were performed in triplicate.

What is called MIC is the least concentration at which growth counts as inhibited. A low value points to inhibition by little substance. For the compound `CC[C@@H](C)[C@@H](NC(=O)[C@@H](CCCCN)NC(=O)[C@@H](CCCCN)NC(=O)[C@@H](Cc1ccccc1)NC(=O)[C@@H](CC(C)C)NC(=O)[C@@H](CCCCN)NC(=O)[C@H](N)CCCCN)C(=O)N[C@H](CC(C)C)C(=O)N[C@H](CCCNC(=N)N)C(=O)N[C@H](Cc1ccc(O)cc1)C(=O)N[C@H](CC(C)C)C(N)=O` [ChIP], in the data set with E. coli ATCC 25922 [1], the “MIC in MHB-II + Human serum (50:50) versus MHB-II” value is reported as “did not change the MIC”. Also, the “peritoneal bacterial titers after treatment” value in the data set on E. coli ATCC 25922 [2] (setting [7]) is 1-5×10^5 CFU/ml. Also, the “reduction of peritoneal bacterial titers” value in the data set on E. coli ATCC 25922 [2] (setting [7]) was determined as 2 logs. Moreover, the “peritoneal CFUs after treatment” value with E. coli ATCC 25922 [2] (setting [8]) is 1×10^3 CFU/ml. For the same compound, the “reduction of peritoneal CFUs” value in the data set on E. coli ATCC 25922 [2] (setting [8]) is 4 logs. For the same compound, the “reduction of peritoneal bacterial titers relative to saline control” value in the data set with A. baumannii ATCC 19606 (after 5 hours) is 3-4 log. Also, the peritoneal bacterial titers with A. baumannii ATCC 19606 (after 5 hours, saline control around 1×10^8 CFU/ml) was 1×10^3-1×10^4 CFU/ml. For the same compound, in the data set on A. baumannii ATCC 19606 (detection limit 50 CFU/ml), the bacterial blood titers result was “reduce CFU/ml to the detection limit”. Besides, the bacterial reduction intraperitoneal result in the data set with E. coli and A. baumannii is “up to 5 logs”. For the same compound, the MIC in data set [3] worked out at 4 µg/mL (≈ 2.76 µM); in [4] it was 8 µg/mL (≈ 5.52 µM); in data set [5], 8 µg/mL (≈ 5.52 µM); against P. aeruginosa B3-CFI, 8 µg/mL (≈ 5.52 µM). The HeLa cell survival entry with HeLa cells was “greatly reduced survival”. The hemolytic activity result in data set [6] is “low hemolytic activity”.
